Test results taken from US20160074351A1, “DISPENSING SYSTEM” (HZNP Limited, priority 2012, published 2016).
Blank lines part the entries; values can stand above or below the molecule they belong to.

Assays:
mice [1] = conditions: doses up to 20 mg/kg/day (0.6-fold the MRHD), maternal and fetal toxicity induced; cited from earlier work
rats [2] = conditions: doses up to 10 mg/kg/day (approximately 0.6-fold the MRHD); cited from earlier work
male and female rats = conditions: doses up to 4 mg/kg/day (1.4-fold of the MRHD); cited from earlier work
rats [3] = conditions: dietary constituent for 2 years, doses up to 2 mg/kg/day; cited from earlier work
albino mice = conditions: daily topical applications for two years at concentrations up to 0.035%; cited from earlier work
rabbits = conditions: doses up to 10 mg/kg/day (approximately […] the MRHD); cited from earlier work
hairless mice = conditions: topical application at doses up to 0.035%; cited from earlier work
mice [4] = conditions: dietary constituent for 2 years, doses up to 2 mg/kg/day; cited from earlier work
[5] = major diclofenac metabolite; cited from earlier work
[6] = bacterial reverse mutation, mouse lymphoma point mutation, CHO chromosomal aberration in vitro, in vivo rat bone marrow chromosomal aberration; cited from earlier work
[7] = oral diclofenac sodium; cited from earlier work
[8] = in vivo; cited from earlier work
patients = conditions: cited from earlier work
rats [9] = conditions: cited from earlier work
[10] = tested on: patients with osteoarthritis; conditions: combination vs. oral diclofenac alone
[11] = case report in the literature; cited from earlier work
minipigs = assay: Ocular effects of dermal DMSO, indirect ophthalmoscopy, minipigs; assay type: in vivo; conditions: multiple-daily dermal application for 52 weeks
rats [12] = assay: Fertility studies of dermally applied DMSO; assay type: in vivo
Description: Studies conducted in rats found no effect of dermally applied DMSO on fertility, reproductive performance, or offspring performance.

rhesus monkeys = conditions: daily oral or dermal treatment for 9 to 18 months; cited from earlier work
rats [13] = assay: Ocular effects of dermal DMSO, indirect ophthalmoscopy, rats; assay type: in vivo; conditions: multiple-daily dermal application for 26 weeks
rabbits, dogs and pigs = conditions: dermal or oral administration; published studies; cited from earlier work
[14] = published studies; cited from earlier work

SMILES: O=C([O-])Cc1ccccc1Nc1c(Cl)cccc1Cl.[Na+] [diclofenac sodium]
- teratogenicity (mice [1]): did not produce teratogenicity
- teratogenicity (rats [2]): did not produce teratogenicity
- fertility (male and female rats): did not affect fertility
- tumor incidence (rats [3]): no significant increases in tumor incidence
- neoplasm incidence (albino mice): did not increase neoplasm incidence
- teratogenicity (rabbits): did not produce teratogenicity
- time of onset of tumors (hairless mice): earlier median time of onset of tumors
- tumor incidence (mice [4]): no significant increases in tumor incidence

SMILES: O=C(O)Cc1ccccc1Nc1c(Cl)cc(O)cc1Cl [4′-hydroxy-diclofenac]
- pharmacologic activity [5]: very weak pharmacologic activity

SMILES: O=C(O)Cc1ccccc1Nc1c(Cl)cccc1Cl [diclofenac]
- mutagenicity / clastogenicity [6]: not mutagenic or clastogenic
- binding of diclofenac to protein when administered with aspirin [7]: reduced
- clearance of free diclofenac when administered with aspirin [7]: not altered
- free unchanged diclofenac excreted in the urine [8]: Little or no
- patients with marked transaminase elevations whose abnormal tests occurred during the first 2 months of therapy (patients; all trials): 42 of the 51 patients
- borderline (less than 3 times ULN) or greater elevations of transaminases, patients (patients; clinical trials of indications other than acute pain): about 15%
- meaningful elevations of ALT and/or AST, patients (patients; open-label controlled trial, 3,700 patients treated for 2 to 6 months): about 4%
- marked elevations (>8 times the ULN) of ALT and/or AST, patients (patients; open-label controlled trial, 3,700 patients): about 1%
- incidence of borderline, moderate and marked elevations of ALT or AST compared to other NSAIDs (patients; open-label study): higher incidence
- effects of maternal exposure on labor and delivery (rats [9]): increased the incidence of dystocia, delayed parturition, and decreased offspring survival
- abnormal creatinine [10]: 7%
- abnormal hemoglobin [10]: 9%
- abnormal urea [10]: 12%
- rate of rectal hemorrhage [10]: less than 1%
- detection in breast milk [11]: can be detected at low levels

- fertility, reproductive performance, or offspring performance (rats [12]): no effect
SMILES: C[S+](C)[O-] [DMSO, dimethyl sulfoxide]
- ocular adverse effects by indirect ophthalmoscopy (minipigs): No adverse effects were observed
- ocular abnormalities (rhesus monkeys): no ocular abnormalities were observed
- ocular adverse effects by indirect ophthalmoscopy (rats [13]): No adverse effects were observed
- ocular findings by slit-lamp biomicroscopy (rabbits, dogs and pigs): refractive changes of lens curvature and cortical fibers indicative of myopic changes and/or incidences of lens opacity or discoloration
- potential teratogenicity [14]: equivocal
